In PubChem BioAssay (NCI):
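The compound was tested at five concentrations on cells cultured in 96-well plates, with a 48-hour exposure period. TGI: concentration producing complete growth inhibition.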

How the values were obtained:
Assay in all cases: NCI tumour cell line growth inhibition, 48 h
[1] = tested on: EKVX NSCLC
[2] = tested on: KM20L2 colon
[3] = tested on: XF 498 CNS
[4] = tested on: LOX IMVI melanoma
[5] = tested on: UACC-62 melanoma
[6] = tested on: HCT-15 colon
[7] = tested on: SN12C renal
[8] = tested on: IGROV1 ovarian
[9] = tested on: SF-295 CNS
[10] = tested on: SF-539 CNS
[11] = tested on: A549 NSCLC
[12] = tested on: LXFL 529 NSCLC
[13] = tested on: M14 melanoma
[14] = tested on: NCI-H522 lung
[15] = tested on: COLO 205 colon
[16] = tested on: A498 renal
[17] = tested on: OVCAR-3 ovarian
[18] = tested on: ACHN renal
[19] = tested on: SK-MEL-5 melanoma
[20] = tested on: CCRF-CEM leukemia
[21] = tested on: SNB-75 CNS
[22] = tested on: HL-60(TB) leukemia
[23] = tested on: RPMI-8226 leukemia
[24] = tested on: HOP-18 NSCLC
[25] = tested on: K-562 leukemia
[26] = tested on: HCT-116 colon
[27] = tested on: OVCAR-8 ovarian
[28] = tested on: RXF-631 renal
[29] = tested on: MOLT-4 leukemia
[30] = tested on: SR leukemia
[31] = tested on: SW-620 colon
[32] = tested on: MALME-3M melanoma
[33] = tested on: HCC-2998 colon
[34] = tested on: RXF 393 renal
[35] = tested on: M19-MEL melanoma
[36] = tested on: SK-MEL-28 melanoma
[37] = tested on: UACC-257 melanoma
[38] = tested on: DMS 114 small cell lung
[39] = tested on: NCI-H23 lung
[40] = tested on: 786-0 renal
[41] = tested on: OVCAR-4 ovarian
[42] = tested on: DMS 273 small cell lung
[43] = tested on: HOP-92 NSCLC
[44] = tested on: HOP-62 NSCLC
[45] = tested on: SNB-78 CNS
[46] = tested on: HT29 colon
[47] = tested on: NCI-H460 lung
[48] = tested on: KM12 colon
[49] = tested on: TK-10 renal
[50] = tested on: SK-MEL-2 melanoma
[51] = tested on: CAKI-1 renal
[52] = tested on: SK-OV-3 ovarian
[53] = tested on: SNB-19 CNS
[54] = tested on: U251 CNS
[55] = tested on: UO-31 renal
[56] = tested on: SF-268 CNS
[57] = tested on: DLD-1 colon
[58] = tested on: NCI-H226 lung
[59] = tested on: OVCAR-5 ovarian

N#CN/C(N)=N/CO
TGI [1]: > 100 µM | TGI [2]: > 100 µM | TGI [3]: > 100 µM | TGI [4]: > 57.7 µM | TGI [5]: > 100 µM | TGI [6]: > 56.9 µM | TGI [7]: > 100 µM | TGI [8]: > 100 µM | TGI [9]: > 100 µM | TGI [10]: > 100 µM | TGI [11]: > 100 µM | TGI [12]: > 100 µM | TGI [13]: > 100 µM | TGI [14]: > 100 µM | TGI [15]: > 57.8 µM | TGI [16]: > 100 µM | TGI [17]: > 100 µM | TGI [18]: > 100 µM | TGI [19]: > 100 µM | TGI [20]: > 100 µM | TGI [21]: > 100 µM | TGI [22]: > 100 µM | TGI [23]: > 76.2 µM | TGI [24]: > 100 µM | TGI [25]: > 100 µM | TGI [26]: > 64.4 µM | TGI [27]: > 100 µM | TGI [28]: > 100 µM | TGI [29]: > 100 µM | TGI [30]: 72.4 µM | TGI [31]: > 56.3 µM | TGI [32]: > 100 µM | TGI [33]: > 100 µM | TGI [34]: 43.5 µM | TGI [35]: > 100 µM | TGI [36]: > 100 µM | TGI [37]: > 100 µM | TGI [38]: > 60.9 µM | TGI [39]: > 100 µM | TGI [40]: > 62.1 µM | TGI [41]: > 100 µM | TGI [42]: > 100 µM | TGI [43]: > 100 µM | TGI [44]: > 100 µM | TGI [45]: > 100 µM | TGI [46]: > 100 µM | TGI [47]: > 100 µM | TGI [48]: > 55.2 µM | TGI [49]: > 100 µM | TGI [50]: > 100 µM | TGI [51]: > 100 µM | TGI [52]: > 100 µM | TGI [53]: > 100 µM | TGI [54]: > 90.2 µM | TGI [55]: > 100 µM | TGI [56]: > 100 µM | TGI [57]: > 87.8 µM | TGI [58]: > 100 µM | TGI [59]: > 100 µM
